Target: T1, P2X2/3 receptor (Homo sapiens, UniProt P56373+Q9UBL9)
T1 construct: expressed in transfected cells; host or cells: CHO-K1
T1 sequence (P56373 1-397): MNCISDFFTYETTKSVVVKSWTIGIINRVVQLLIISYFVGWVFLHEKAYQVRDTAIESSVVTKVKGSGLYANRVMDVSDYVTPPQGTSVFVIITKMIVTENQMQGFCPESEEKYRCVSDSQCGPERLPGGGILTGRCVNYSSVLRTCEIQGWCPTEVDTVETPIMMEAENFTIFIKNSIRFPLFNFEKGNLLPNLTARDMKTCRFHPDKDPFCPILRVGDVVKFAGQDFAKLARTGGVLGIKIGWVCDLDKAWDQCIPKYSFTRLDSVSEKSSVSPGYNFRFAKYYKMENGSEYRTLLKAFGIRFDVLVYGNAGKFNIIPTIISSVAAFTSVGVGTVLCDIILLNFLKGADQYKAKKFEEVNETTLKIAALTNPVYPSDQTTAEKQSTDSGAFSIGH
T1 sequence (Q9UBL9 1-471): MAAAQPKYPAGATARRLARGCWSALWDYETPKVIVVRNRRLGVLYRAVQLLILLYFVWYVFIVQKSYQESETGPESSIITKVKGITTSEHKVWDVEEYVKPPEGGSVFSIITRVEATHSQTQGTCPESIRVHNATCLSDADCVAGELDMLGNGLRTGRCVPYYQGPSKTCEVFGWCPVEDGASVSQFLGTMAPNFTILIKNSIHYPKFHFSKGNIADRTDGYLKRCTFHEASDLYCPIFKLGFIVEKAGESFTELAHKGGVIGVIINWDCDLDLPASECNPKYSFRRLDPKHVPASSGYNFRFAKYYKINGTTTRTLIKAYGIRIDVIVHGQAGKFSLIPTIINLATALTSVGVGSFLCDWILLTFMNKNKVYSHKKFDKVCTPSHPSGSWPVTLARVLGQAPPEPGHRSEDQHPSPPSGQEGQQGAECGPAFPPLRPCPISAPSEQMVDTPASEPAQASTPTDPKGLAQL
Assay: P2X2/3 FLIPR (Fluorometric Imaging Plate Reader) assay
Assay type: cell-based
Conditions: CHO-K1 cells transfected with human P2X2/3; agonist α,β-meATP 5 μM; Fluo-3 fluorescence
Experimental: CHO-K1 cells were transfected with cloned rat P2X3 or human P2X2/3 receptor subunits and passaged in flasks. 18-24 hours before the FLIPR experiment, cells were released from their flasks, centrifuged, and resuspended in nutrient medium at 2.5×10^5 cells/ml. The cells were aliquoted into black-walled 96-well plates at a density of 50,000 cells/well and incubated overnight in 5% CO2 at 37° C. On the day of the experiment, cells were washed in FLIPR buffer (calcium- and magnesium-free Hank's balanced salt solution, 10 mM HEPES, 2 mM CaCl2, 2.5 mM probenecid; FB). Each well received 100 μl FB and 100 μl of the fluorescent dye Fluo-3 AM [2 μM final conc.]. […]
Test compounds (dissolved in DMSO at 10 mM and serially diluted with FB) or vehicle were added to each well (25 μl of a 4× solution) and allowed to equilibrate for 20 minutes at room temperature. The plates were then placed in the FLIPR and a baseline fluorescence measurement (excitation at 488 nm and emission at 510-570 nm) was obtained for 10 seconds before a 100 μl/well agonist or vehicle addition. […] Fluorescence was measured for an additional 2 minutes at 1 second intervals after agonist addition. A final addition of ionomycin (5 μM, final concentration) was made to each well of the FLIPR test plate to establish cell viability and maximum fluorescence of dye-bound cytosolic calcium. […]

IC50: ~7.94 nM
SMILES: CCc1nnnn1-c1cc(C(=O)NC(C)c2cnccn2)cc(-c2ccc(C)cc2)c1 (stereo not shown) [5-(5-ethyl-tetrazol-1-yl)-4′-methyl-biphenyl-3-carboxylic acid (1-pyrazin-2-yl-ethyl)-amide]

Reference: patent US9512089B2, “Tetrazole-substituted arylamides as P2X3 and P2X2/3 antagonists” (Roche Palo Alto LLC, priority 2007, dated 2016)
